Data reported in PMC9916951, “Enzyme Inhibition-Based Assay to Estimate the Contribution of Formulants to the Effect of Commercial Pesticide Formulations” (International Journal of Molecular Sciences, 2023).
Like-named read-outs stand apart in the source and are kept apart here.

What was measured:
[1] = biological target: T1, trypsin (Sus scrofa, UniProt P00761); test: Single-enzyme assay system, trypsin activity (absorbance 253 nm); format: biochemical, porcine
T1 construct: purchased Sigma-Aldrich; host or cells: porcine pancreas
T1 sequence (P00761 9-231): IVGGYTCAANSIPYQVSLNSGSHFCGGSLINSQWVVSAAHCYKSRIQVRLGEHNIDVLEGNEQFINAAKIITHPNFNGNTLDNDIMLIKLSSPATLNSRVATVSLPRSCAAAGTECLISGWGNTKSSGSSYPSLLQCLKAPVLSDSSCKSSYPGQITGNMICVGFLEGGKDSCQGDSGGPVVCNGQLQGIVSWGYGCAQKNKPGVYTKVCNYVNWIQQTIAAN
Description: (§1) The activities of enzyme assay systems were determined by measuring the absorbance of reaction mixture solutions or bioluminescence intensity in the solutions of the analyzed pesticide active ingredients or in the control solution.
Trypsin activity was analyzed in the reaction mixture containing 490 μL of the 0.1 M Clark and Lubs buffer pH 7.6, 11 mU of trypsin, 40 μL of 1 mM hydrochloric acid, and 460 μL of the 0.5 mM BAEE solution. The absorbances of the solutions were measured at 253 nm.
(§2) The effects of the active ingredients of pesticide and the solvents on the activity of the enzymes in the single-enzyme assay systems were determined as the relative activity according to the formula A = (At/Ac)∙100%, where Ac and At are the enzyme activity in the control and in the analyte solution, respectively.
(§3) The parameter IC50 was used to estimate the inhibitory effect of the active ingredients of pesticides on the enzyme activity and the bioluminescence intensity of a multi-enzyme assay system. It is the concentration of the active ingredient decreasing the enzyme activity by 50%.

[2] = biological target: T2, alcohol dehydrogenase (ADH) (Saccharomyces cerevisiae, UniProt P00330); test: Single-enzyme assay system, ADH activity (absorbance 340 nm); format: biochemical, baker's yeast
T2 construct: purchased Sigma-Aldrich; host or cells: baker’s yeast
T2 sequence (P00330 whole entry): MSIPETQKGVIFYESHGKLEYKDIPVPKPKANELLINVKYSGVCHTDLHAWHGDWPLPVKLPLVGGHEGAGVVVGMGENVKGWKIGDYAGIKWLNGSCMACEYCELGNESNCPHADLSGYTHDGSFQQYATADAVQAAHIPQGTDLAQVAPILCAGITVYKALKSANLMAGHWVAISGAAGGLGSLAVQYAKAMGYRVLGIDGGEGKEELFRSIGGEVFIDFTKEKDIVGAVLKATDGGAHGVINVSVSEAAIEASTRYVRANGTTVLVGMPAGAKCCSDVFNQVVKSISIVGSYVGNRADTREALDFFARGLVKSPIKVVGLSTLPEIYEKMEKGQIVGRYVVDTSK
Description: as §1
(§4) The activities of single-enzyme assay systems with Red, ADH, and LDH were determined by changes in the absorbance at 340 nm.
The activity of the ADH was estimated by using the following reaction mixture: 1500 μL of the potassium-phosphate buffer 0.05 M pH 7.85, 750 mU of ADH, 40 μL of the 2.4 mM NAD^+ solution, and 25 μL of 95% ethanol. Distilled water and acetonitrile were used as control solutions.
as §2, §3

[3] = biological target: alcohol dehydrogenase + NAD(P)H:FMN-oxidoreductase + luciferase (ADH + Red + Luc); test: Three-enzyme assay system ADH + Red + Luc, luminescence intensity; format: biochemical, baker's yeast; Vibrio fischeri; Photobacterium leiognathi; details: active ingredient alone (AIa)
Description: (§5) The activities of the multi-enzyme assay systems were determined from the values of the luminescence intensity in the presence of the control or the analyte solutions.
An analysis of the activity of the ADH + Red + Luc three-enzyme assay system was performed using the reaction mixture containing 350 μL of the 0.05 M potassium-phosphate buffer pH 6.9; 5 μL of 0.5 mg/mL ADH; 5 μL of the Red + Luc solution, preliminarily diluted in 5 mL of the buffer solution; 50 μL of the 0.0025% tetradecanal solution; 100 μL of the 0.4 mM NAD^+ solution; 10 μL of the 0.5 mM FMN solution; 5 μL of 95% ethanol; and 10–100 μL of the solvent (control) or the analyte solution. The proportions of ADH, Red, and Luc in the reaction mixture were 10:1.2:1, and their concentrations were about 120, 14, and 12 nM, respectively.
(§6) The effect of the pesticide active ingredients and solvents on the multi-enzyme reactions was estimated from the residual luminescence intensity calculated according to the formula I = (It/Ic)∙100%, where Ic and It are the average values of luminescence intensity in the presence of the control or analyte solution, respectively.
as §3

[4] = biological target: T3, lactate dehydrogenase (LDH) (Oryctolagus cuniculus, UniProt P13491); test: Single-enzyme assay system, LDH activity (absorbance 340 nm); format: biochemical, rabbit
T3 construct: purchased Sigma-Aldrich; host or cells: rabbit muscle
Description: as §1, §4
The reaction mixture for the LDH-catalyzed reaction comprised 850 μL of the 0.05 M potassium-phosphate buffer pH 8.0, 9 U of LDH, 40 μL of the 3.25 mM NADH solution, 30 μL of the 69 mM pyruvate solution, and 50 μL of the analyte solution or the solvent solution (control).
as §2, §3

[5] = biological target: lactate dehydrogenase + NAD(P)H:FMN-oxidoreductase + luciferase (LDH + Red + Luc); test: Three-enzyme assay system LDH + Red + Luc, luminescence intensity; format: biochemical, rabbit; Vibrio fischeri; Photobacterium leiognathi; details: active ingredient alone (AIa)
Description: as §5
The reaction mixture for analyzing the luminescence intensity of the LDH + Red + Luc three-enzyme assay system consisted of 5 μL of 0.5 mg/mL LDH; 300 μL of the 0.05 M potassium-phosphate buffer pH 7.1; 10 μL of the 15 mM lactate solution; 50 μL of the 0.0025% tetradecanal solution; 10 μL of the Red + Luc solution, preliminarily diluted in 5 mL of the buffer solution; 10 μL of the 0.5 mM FMN solution; 100 μL of the 0.5 mM NAD^+ solution; and 10–50 μL of the analyte solution or the solvent solution (control). The proportions of LDH, Red, and Luc in the reaction mixture were 1.4:1.2:1, and their concentrations were about 36, 31, and 26 nM, respectively.
as §6, §3

[6] = biological target: NAD(P)H:FMN-oxidoreductase + luciferase (Red + Luc); test: Coupled enzyme assay system Red + Luc, luminescence intensity; format: biochemical, Vibrio fischeri; Photobacterium leiognathi; details: active ingredient alone (AIa)
Description: as §5
To analyze the effect of pesticides on the luminescence intensity of the Red + Luc coupled enzyme assay system, we used the following reaction mixture: 290 μL of the 0.05 M potassium-phosphate buffer pH 6.8; 5 μL of the Red + Luc mixture, preliminarily diluted in 5 mL of the buffer solution; 50 μL of the 0.0025% tetradecanal solution; 50 μL of the 0.5 mM FMN solution; 100 μL of the 0.4 mM NADH solution; and 10–200 μL of the analyte solution or the solvent solution used as a control. Ratio of Red to Luc in the reaction mixture was 1.2:1; and their concentrations were about 15 and 13 nM, respectively.
as §6, §3

[7] = maximum residual levels of the active ingredient, Russian Federation; cited from earlier work
[8] = biological target: T4, butyrylcholinesterase (BChE) (Equus caballus, UniProt P81908); test: Single-enzyme assay system, BChE activity (Ellman's method, 412 nm); format: biochemical, equine
T4 construct: purchased Sigma-Aldrich; host or cells: equine serum
T4 sequence (P81908 whole entry): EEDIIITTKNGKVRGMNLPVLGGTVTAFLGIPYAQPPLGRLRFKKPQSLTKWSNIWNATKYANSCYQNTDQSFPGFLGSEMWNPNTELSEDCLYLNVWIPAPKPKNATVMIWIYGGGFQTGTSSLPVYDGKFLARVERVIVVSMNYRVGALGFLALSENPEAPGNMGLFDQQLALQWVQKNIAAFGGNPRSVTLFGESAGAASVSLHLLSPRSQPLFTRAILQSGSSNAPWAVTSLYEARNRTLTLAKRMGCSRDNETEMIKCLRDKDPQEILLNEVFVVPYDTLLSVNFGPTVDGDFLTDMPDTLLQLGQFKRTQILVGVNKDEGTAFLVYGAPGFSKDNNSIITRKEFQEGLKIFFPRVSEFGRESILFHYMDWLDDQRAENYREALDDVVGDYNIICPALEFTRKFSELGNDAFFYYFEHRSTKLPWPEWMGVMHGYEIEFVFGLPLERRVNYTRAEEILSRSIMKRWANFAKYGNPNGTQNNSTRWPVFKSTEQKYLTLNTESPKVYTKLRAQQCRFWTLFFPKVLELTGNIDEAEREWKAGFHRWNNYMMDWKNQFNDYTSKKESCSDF
Description: as §1
To analyze BChE activity Ellman’s method was used. The absorbance of the solutions was measured at the 412 nm. We used the following reaction mixture: 800–850 μL of the 0.05 M potassium-phosphate buffer pH 8.0, 70 mU of BChE, 60 μL of 0.2 mM 5,5′-dithiobis (2-nitrobenzoic acid), 60 μL of 0.2 mM S-BCh-I, and 50–100 μL of the analyte solution or the solvent solution used as control.
as §2, §3

[9] = biological target: alkaline phosphatase (ALP) (Bos taurus, UniProt P19111); test: Single-enzyme assay system, ALP activity (absorbance 405 nm); format: biochemical, bovine; details: 13.5 mg/L of fenvalerate (AIa)
Sequence of alkaline phosphatase (ALP) (P19111 20-506): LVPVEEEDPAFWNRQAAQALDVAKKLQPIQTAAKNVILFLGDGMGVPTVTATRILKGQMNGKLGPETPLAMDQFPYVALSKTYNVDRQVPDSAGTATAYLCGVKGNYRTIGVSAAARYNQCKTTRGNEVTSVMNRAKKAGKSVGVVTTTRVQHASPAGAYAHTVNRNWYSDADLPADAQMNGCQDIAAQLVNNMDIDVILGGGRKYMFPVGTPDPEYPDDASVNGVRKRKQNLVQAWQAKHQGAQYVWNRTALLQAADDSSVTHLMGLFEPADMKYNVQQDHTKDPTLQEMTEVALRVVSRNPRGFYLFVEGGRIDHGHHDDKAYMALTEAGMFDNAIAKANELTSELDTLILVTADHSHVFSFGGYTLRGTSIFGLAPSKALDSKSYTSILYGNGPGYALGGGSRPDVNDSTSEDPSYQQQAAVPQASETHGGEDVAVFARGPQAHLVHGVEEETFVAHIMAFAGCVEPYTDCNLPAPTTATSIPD
Description: as §1
The activity of the ALP was analyzed in the following reaction mixture: 990 μL of the glycine NaOH buffer pH 9.6 containing 0.5 mM MgCl2, 1.2 mU of the ALP solution, 8 μL of the 33 mM […] solution, and 30–50 μL of the analyte solution. The absorbance of the solutions was measured at 405 nm.
as §2, §3

[10] = biological target: NAD(P)H:FMN-oxidoreductase (Red); test: Single-enzyme assay system, Red activity (absorbance 340 nm); format: biochemical, Vibrio fischeri; details: active ingredient alone (AIa)
Description: as §1, §4
The reaction mixture for the Red-catalyzed reaction consisted of 750 μL of the 0.05 M potassium-phosphate buffer pH 7.25, 6 mU of Red, 100 μL of the 0.4 mM NADH solution, 10 μL of the 0.5 mM FMN solution, and 5–100 μL of the analyte solution or the solvent (control).
as §2, §3

[11] = tested on: Photobacterium phosphoreum; test: Bioluminescence of luminous bacterium P. phosphoreum; format: cell-based
Description: Bacterium P. phosphoreum 1889 was provided by the museum at the IBP SB RAS [68]. P. phosphoreum cells were grown for 24 h on solid medium for marine bacteria. The cells were suspended in the sodium-phosphate buffer pH 7.4.
The effects of active ingredients of pesticides on the luminous bacterium were determined by changes in the bacterial luminescence intensity in the presence of the analyte relative to the control value. The solvent was used as a control solution. The reaction mixture for analyzing the luminescence intensity of luminous bacterium in the presence of control solution contained 450 μL of bacterial suspension and 5 μL of ethanol or 50 μL of distilled water, used as solvents for active ingredients of pesticides. A cuvette with the reaction mixture was placed into a luminometer, and luminescence intensity (Ic) was measured after 1 min. Then, another aliquot of bacterial suspension and 5 or 50 μL of a pesticide active ingredient solution were placed into a luminometer cuvette, and luminescence intensity (It) was measured after 1 min. The residual luminescence intensity was determined according to the formula I = (It/Ic) ∙ 100%.
The parameter EC50 was used to estimate the inhibitory effect of the active ingredients of pesticides on the bioluminescence of P. phosphoreum. […]

[12] = active ingredient alone (AIa), read-out: IC50, ADH (converted)
[13] = active ingredient alone (AIa), read-out: IC50, LDH (converted)
[14] = active ingredient alone (AIa), read-out: IC50, BChE (converted)

| SMILES | IC50 [2, 12] [µM] | IC50, ADH + Red + Luc [3] | IC50 [4, 13] [µM] | IC50, LDH + Red + Luc [5] | IC50, Red + Luc [6] | MRL RUS [7] [mg/kg] | IC50 [8, 14] [µM] | other results |
| --- | --- | --- | --- | --- | --- | --- | --- | --- |
| CC1(C)C(C=C(Cl)Cl)C1C(=O)OC(C#N)c1cccc(Oc2ccccc2)c1 (stereo not shown) [Cypermethrin, cypermethrin] | 0.48 | 0.2 µg/mL | 60.1 | 6.5 µg/mL | 1.8 µg/mL |  |  | IC50, Trypsin ([1]; active ingredient alone (AIa)): No inhibitory effects |
| CC1(C)[C@H](C(=O)O[C@H](C#N)c2cccc(Oc3ccccc3)c2)[C@@H]1C=C(Br)Br [Deltamethrin, deltamethrin] | 20.6 | 1.0 µg/mL | 59.4 | 7.7 µg/mL | 3.7 µg/mL | 0.01 to 0.3 | 198 |  |
| CCOP(=S)(OCC)Oc1cc(C)nc(C(C)C)n1 [Diazinon, diazinon] |  | 11 µg/mL |  | 3351 µg/mL | 2234 µg/mL | 0.1 to 0.5 |  | IC50 [2]: 47.6 µM; IC50, LDH ([4]; active ingredient alone (AIa)): No inhibitory effects |
| CC(C)C(C(=O)OC(C#N)c1cccc(Oc2ccccc2)c1)c1ccc(Cl)cc1 (stereo not shown) [Fenvalerate, fenvalerate] |  | 1.6 µg/mL | 7.14 | 31.7 µg/mL | 4.8 µg/mL |  | 286 | increase in trypsin activity ([1]; 10 mg/L of fenvalerate (AIa)): 28%; IC50, ADH ([2]; active ingredient alone (AIa)): No inhibitory effects; increase in ALP activity [9]: 26% |
| O=C(O)CNCP(=O)(O)O [Glyphosate, glyphosate] | 30400 | 3200 µg/mL |  | 935 µg/mL | 288 µg/mL |  | 207 | IC50 ([1]; active ingredient alone (AIa), read-out: IC50, Trypsin (converted)): 5690 µM; IC50 ([1]; glyphosate as AIa, read-out: IC50, trypsin (Figure 2 legend) (converted)): 5680 µM; IC50, Red [10]: no 50% inhibition; IC50, LDH ([4]; active ingredient alone (AIa)): no 50% inhibition; concentration giving 50% inhibition of Red + Luc activity [6]: 0.3 g/L |
| O=[N+]([O-])NC1=NCCN1Cc1ccc(Cl)nc1 [Imidacloprid, imidacloprid] |  | – (No inhibitory effect of the AIa and AIf was detected in the tested concentration range.) |  | – (No inhibitory effect of the AIa and AIf was detected in the tested concentration range.) | – (No inhibitory effect of the AIa and AIf was detected in the tested concentration range.) | 0.1 to 1.0 |  | EC50, P. phosphoreum bioluminescence ([11]; active ingredient alone (AIa), luminescence after 1 min): did not produce any detectable effect; EC20 (20% quenching of bacterial bioluminescence) ([11]; imidacloprid as AIa and as AIf): 50 µg/mL |
| CCOC(=O)CC(SP(=S)(OC)OC)C(=O)OCC (stereo not shown) [Malathion, malathion] |  |  |  |  |  | 0.05 to 1.0 |  | IC50 [4]: 1060 µM; IC50 [8]: 1820 µM |
